We go through one compound from paper PMC4850288, “Crystal Structure and Activity Studies of the C11 Cysteine Peptidase from Parabacteroides merdae in the Human Gut Microbiome” (The Journal of Biological Chemistry, 2016).

The target in assay [1] is T1, PmC11 (Parabacteroides merdae, UniProt A0ABF7PHE6, K147A, form not given).
T1 construct: gene PARMER_00083; signal peptide Met1-Asn22 deleted (for structure); N-terminal tag MGSDKIHHHHHHENLYFQ/G, kept in assays; E. coli BL21 Star (DE3); monomer
T1 sequence (A0ABF7PHE6 23-147 K147A): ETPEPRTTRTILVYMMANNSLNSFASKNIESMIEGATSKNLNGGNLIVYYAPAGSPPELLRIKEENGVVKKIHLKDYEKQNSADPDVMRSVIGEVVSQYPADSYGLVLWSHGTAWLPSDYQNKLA
T1 sequence (A0ABF7PHE6 148-375): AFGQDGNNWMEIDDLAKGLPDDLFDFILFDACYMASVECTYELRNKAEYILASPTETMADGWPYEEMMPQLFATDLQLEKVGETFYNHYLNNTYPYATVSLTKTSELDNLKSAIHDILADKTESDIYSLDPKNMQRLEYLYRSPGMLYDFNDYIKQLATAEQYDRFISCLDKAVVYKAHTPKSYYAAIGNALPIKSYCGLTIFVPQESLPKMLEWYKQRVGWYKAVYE
Briefly: fluorogenic AMC release, Lineweaver-Burk. Format: biochemical. Conditions: pH 8.0, 20 mM Tris, 150 mM NaCl, 37 °C; enzyme preincubated 16 h at 37 °C; 0-600 μM substrate; unprocessed cleavage-site mutant. The procedure: (§1) fluorogenic AMC release, Lineweaver-Burk on PmC11 | Km and Vmax of PmC11 and K147A mutant were determined by monitoring change in the fluorescence

Assay [2] concerns the target T2, PmC11 (Parabacteroides merdae, UniProt A0ABF7PHE6).
T2 construct: gene PARMER_00083; signal peptide Met1-Asn22 deleted (for structure); N-terminal tag MGSDKIHHHHHHENLYFQ/G, kept in assays; E. coli BL21 Star (DE3); monomer
T2 sequence (A0ABF7PHE6 23-147): T1 sequence (A0ABF7PHE6 23-147 K147A) with A125K
T2 sequence (A0ABF7PHE6 148-375): T1 sequence (A0ABF7PHE6 148-375)
Briefly: fluorogenic AMC release, Lineweaver-Burk. Format: biochemical. Conditions: pH 8.0, 20 mM Tris, 150 mM NaCl, 37 °C; enzyme preincubated 16 h at 37 °C; 0-600 μM substrate. The procedure:
as §1

Changes are numbered by the printed parent chain.

What is called Km is the concentration of substrate that gives half-maximal velocity. For `Cc1cc(=O)oc2cc(NC(=O)[C@H](CCCNC(=N)N)NC(=O)c3ccccc3)ccc12` [Bz-R-AMC, benzoyl-L-Arg-4-methylcoumaryl-7-amide], the Km was determined as 301 ± 239 µM on PmC11 [1] and 274 ± 6 µM on PmC11 [2].
